Test results taken from ChEMBL document CHEMBL1135600, “Novel tricyclic-alpha-alkyloxyphenylpropionic acids: dual PPARalpha/gamma agonists with hypolipidemic and antidiabetic activity” (J Med Chem, 2002).
pEC50: −log10 of the molar value. Where “and” joins values, the source holds several entries; their conditions need not be identical. Equal entries are not always repeated. Calls of active or inactive are those of the source. The rule behind the calls is not given here.

Legend:
[1] = target: T1, Peroxisome proliferator-activated receptor gamma (Homo sapiens, UniProt P37231)
T1 sequence (P37231 whole entry): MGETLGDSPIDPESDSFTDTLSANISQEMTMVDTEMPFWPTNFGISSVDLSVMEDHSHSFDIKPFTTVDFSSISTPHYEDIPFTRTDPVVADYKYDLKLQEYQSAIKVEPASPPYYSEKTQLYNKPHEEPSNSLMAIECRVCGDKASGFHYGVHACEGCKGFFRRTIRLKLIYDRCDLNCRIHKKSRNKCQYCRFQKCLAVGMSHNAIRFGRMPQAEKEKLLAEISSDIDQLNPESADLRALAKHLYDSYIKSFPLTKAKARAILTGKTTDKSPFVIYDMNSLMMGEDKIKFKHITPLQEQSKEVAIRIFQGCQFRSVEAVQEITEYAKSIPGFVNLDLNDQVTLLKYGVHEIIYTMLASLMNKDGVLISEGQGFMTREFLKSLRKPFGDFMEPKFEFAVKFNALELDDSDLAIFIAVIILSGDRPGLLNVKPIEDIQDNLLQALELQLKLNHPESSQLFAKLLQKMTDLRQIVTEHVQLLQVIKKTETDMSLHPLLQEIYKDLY
Description: In vitro transactivation using receptor transactivation assay against hPPAR gamma

[2] = target: T2, Peroxisome proliferator-activated receptor alpha (Homo sapiens, UniProt Q07869); test: In vitro transactivation using receptor transactivation assay against hPPAR alpha; type: functional
T2 sequence (Q07869 whole entry): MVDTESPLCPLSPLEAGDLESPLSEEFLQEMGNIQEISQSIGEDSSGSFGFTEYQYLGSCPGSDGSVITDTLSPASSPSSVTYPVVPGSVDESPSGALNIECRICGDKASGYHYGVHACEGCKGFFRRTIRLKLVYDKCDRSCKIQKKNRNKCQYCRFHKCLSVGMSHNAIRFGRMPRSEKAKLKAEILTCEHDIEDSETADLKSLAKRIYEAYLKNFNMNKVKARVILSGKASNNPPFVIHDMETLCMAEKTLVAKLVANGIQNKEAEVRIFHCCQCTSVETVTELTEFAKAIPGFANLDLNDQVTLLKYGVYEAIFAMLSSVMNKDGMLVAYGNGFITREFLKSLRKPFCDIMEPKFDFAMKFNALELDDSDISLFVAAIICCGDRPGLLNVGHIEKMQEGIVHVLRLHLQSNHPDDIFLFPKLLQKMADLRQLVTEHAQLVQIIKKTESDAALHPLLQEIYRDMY

[3] = Maximum plasma concentration after oral administration at a dose 2.2 mg/kg in rat; type: ADME, organism-based; set-up: dose 2.2 mg/kg, route oral
[4] = Area under plasma concentration time curve after oral administration at a dose 2.2 mg/kg in rat; type: ADME, organism-based; set-up: dose 2.2 mg/kg, route oral
Mus musculus [5] = organism: Mus musculus; test: Effective dose which produces the desired nonfasting blood glucose levels after 7 days in 50% of the treated mice.; type: functional; conditions: 168 h
Mus musculus [6] = organism: Mus musculus; test: Maximum achieved triglycerides reduction relative to vehicle treated control group; type: functional
[7] = Area under blood glucose time curve after OGTT on the 9th day of treatment; type: ADME, tissue-based
[8] = Oral bioavailability in rat; type: ADME, organism-based; conditions: in vivo
Mus musculus [9] = organism: Mus musculus; test: Effective dose which produces the desired nonfasting insuline levels after 7 days in 50% of the treated male db/db mice.; type: functional; conditions: 168 h
[10] = Clearance after oral administration in rat; type: ADME, organism-based; conditions: in vivo
[11] = Volume of distribution during steady state in rat; type: ADME, organism-based; conditions: in vivo, read-out: Vss
[12] = Oral half life was reported in rat; type: ADME, organism-based; conditions: in vivo
Mus musculus [13] = organism: Mus musculus; test: Effective dose which produces the desired nonfasting triglyceride levels after 7 days in 50% of the treated male db/db mice.; type: functional; conditions: 168 h
Mus musculus [14] = organism: Mus musculus; test: Maximum achieved insulin reduction relative to vehicle treated control group; type: functional
Mus musculus [15] = organism: Mus musculus; test: Maximum achieved blood glucose reduction relative to vehicle treated control group; type: functional
Mus musculus [16] = organism: Mus musculus; test: Maximum achieved insulin reduction relative to vehicle treated control group; NE is Not Effective.; type: functional, organism-based
Mus musculus [17] = organism: Mus musculus; test: Minimum concentration which produces the desired nonfasting triglyceride levels after 7 days in 50% of the treated male db/db mice.; type: functional; conditions: 168 h
Mus musculus [18] = organism: Mus musculus; test: Minimum concentration which produces the desired nonfasting blood glucose levels after 7 days in 50% of the treated mice.; type: functional; conditions: 168 h

| Structure (SMILES) | pEC50 [1] | pEC50 [2] | further results |
| --- | --- | --- | --- |
| CCOC(Cc1ccc(OCCNC2=Nc3ccccc3Sc3ccccc32)cc1)C(=O)O (centres undefined) | 5.01 | 5.12 | – |
| CCO[C@@H](Cc1ccc(OCCn2c3ccccc3c3ccncc32)cc1)C(=O)O | 7.96 | 6.85 | Cmax [3]: 527 ng/mL; AUC [4]: 1330 ng·h/mL; ED50 (Mus musculus [5]): 0.33 mg/kg; Max reduction (Mus musculus [6]): 50%; AUC ED50 [7]: 3.32 mg/kg; bioavailability [8]: 61%; ED50 (Mus musculus [9]): 7.74 mg/kg; CL/F [10]: 12.7 mL/min/kg; Vd [11]: 0.88 L/kg; half-life [12]: 2.7 h; ED50 (Mus musculus [13]): 2.68 mg/kg; Max reduction (Mus musculus [14]): 77% |
| CCOC(Cc1ccc(OCCC2c3ccccc3Oc3ccccc32)cc1)C(=O)O (centres undefined) | 6.34 | 5.02 | – |
| CCOC(Cc1ccc(OCCC2c3ccccc3-c3ccccc32)cc1)C(=O)O (centres undefined) | 6.31 | 4.93 | – |
| CCOC(Cc1ccc(OCCCN2c3ccccc3OCOc3ccccc32)cc1)C(=O)O (centres undefined) | 5.92 | 5.92 | Cmax [3]: 730 ng/mL; Max reduction (Mus musculus [15]): 17% and 20%; Max reduction (Mus musculus [6]): 13%; AUC ED50 [7]: 6.57 mg/kg; bioavailability [8]: 63%; NE (Mus musculus [16]): inactive; ED50 (Mus musculus [17]): 18.3 mg/kg; CL/F [10]: 13.7 mL/min/kg; Vd [11]: 0.76 L/kg; ED50 (Mus musculus [18]): 8.11 mg/kg |
| CCOC(Cc1ccc(OCCN2c3ccccc3C=Cc3ccccc32)cc1)C(=O)O (centres undefined) | 6.12 | 5.02 | – |

Continued, in another order:

| pEC50 [1] | Structure (SMILES) | pEC50 [2] | further results |
| --- | --- | --- | --- |
| 5.77 | CCOC(Cc1ccc(OCCN(C)C2c3ccccc3CCc3ccccc32)cc1)C(=O)O (centres undefined) | – | – |
| 4.92 | CCOC(Cc1ccc(OCC=C2c3ccccc3-c3ccccc32)cc1)C(=O)O (centres undefined) | 4.90 | – |
| 4.91 | CCOC(Cc1ccc(OCC/C=C2/c3ccccc3COc3ccccc32)cc1)C(=O)O (centres undefined) | 4.91 | – |
| 7.04 | CCOC(Cc1ccc(OCCn2c3ccccc3c3ccncc32)cc1)C(=O)O (centres undefined) | 6.17 | – |
| 5.47 | CCOC(Cc1ccc(OCC=C2c3ccccc3OCOc3ccccc32)cc1)C(=O)O (centres undefined) | – | – |
| 5.43 | CCOC(Cc1ccc(OCCC2Sc3ccccc3Oc3ccccc32)cc1)C(=O)O (centres undefined) | 5.05 | – |
